Consider four compounds from US20250009843A1, “COMPOSITIONS AND METHODS FOR TREATMENTS BY MODULATION OF EXCITABLE TISSUES ACTIVITIES, AND FOR ANTIMICROBIAL APPLICATIONS” (priority 2021, published 2025).

The test system of data set [1] is dorsal root ganglia (DRG) (sensory) neurons. Conditions: literature value; cited from earlier work.
Data set [2] has the same test system. The experiment in a line: Single cell patch clamp on DRG neurons (sodium current, action potentials). Type of data set: cell-based, rat. The protocol: Dorsal Root Ganglia (DRG) sensory neurons were extracted from […] (Cdram). The DRG explants were dissected from the cervical and thoracic regions of the spine of neonatal rat pups (P5) and placed in cold HBSS (lx) without Ca^2+/Mg^2+ (Invitrogen, USA). After cleaning the remnants of peripheral nerve processes, DRGS were seeded in 12-well glass-coated laminin plates. Cells were feed every 2/3 days and they were processed for single cell patch clamping.
Whole cell patch clamp configuration was used to record from 100 day iPSC derived neurons and DRG neurons. […]
Recordings were made using the EPC10 patch clamp amplifier from HEKA. Voltage-dependent Na^+ and K^+ currents were recorded in voltage clamp mode from a holding potential of −70 mV; voltage step depolarization was applied up to +20 mV in 10 mV increments and recorded for 200 ms. All data were recorded unfiltered for voltage and current clamp recording at 50.0 kHz and 20.0 kHz, respectively.
Intrinsic firing properties of neurons were recorded in current clamp mode, with step current injections from a holding value of −5 pA up to +45 pA, for 500 ms, in 10 pA increments. Spontaneous action potential (AP) was recorded in current clamp mode at zero current injection (resting membrane potential) just after whole cell configuration was achieved. […]

The subject of data set [3] is TRPV1 pathway in cortical neurons. The data set can be described thus: Calcium imaging of cortical neurons (capsaicin, glutamic acid). Type of data set: cell-based. The note with it: 1 μg/ml. Here is the method: TRPV1 channels on neurons open in response to stimuli like capsaicin. Once open cations like calcium flow into the cell, which triggers action potentials and the sensation of pain. Cells tested were cortical neurons, n=3 unless noted. Panel A: Calcium imaging is used to measure calcium flow across neural cell membranes. Cells treated in sequence with no chemical (control), PLA (1.9 kDa at 1 μg/ml), capsaicin, and then glutamic acid. […] This is an effect seen by TRPV1 agonists that are used as analgesics such as capsaicin.

The test system of a further data set is DRGs. Type of data set: cell-based. Conditions: 24-72 hours, 2.5 mg/ml of HA or equivalent. Here is the method:
(§1) FIG. 4: Data of the effect of various peptide drug embodiments and peptide alone on metabolic activity and viability of cell types (DRG: dorsal root ganglion; hChon: human normal chondrocytes; OA: human OA chondrocytes). n=3 in all cases; all tested at 2.5 mg/ml of HA or equivalent using gram:gram ratio (See Table). Details on test materials given in below table. […] Panel B: Viability assessed using Live/Dead assay. No significant difference between peptide drug at 24-72 hours in DRGs compared to control.

For data set [4], the system named is E. coli. The experiment in a line: Optical density assay of antimicrobial effect. Type of data set: cell-based. The note with it: for E. coli growth (optical density as percentage of control): 16 hours incubation, polymers and conjugates 1-5 mg/ml, PLA 0.01-0.5 mg/ml. The protocol:
As an example of this Hydrobloc prototypes and PLA 1.9 kDa at various concentrations were incubated with E. coli in wells. If microbial growth occurs, then the optical density increases reflecting the colloidal nature of bacterial cells. As a control a blank well is prepared containing growth medium and saline. The results after 16 hours incubation are presented in the figure as a percentage of control. Panel A: Optical density results for various Hydrobloc prototypes and related test materials.
(§2) Hyaluronic acid (2.2-2.4 MDa) or PEG (10 kDa) was used as base polymer conjugated to Poly-L-Arginine (1.9 kDa or 15-70 kDa) as the AMP in varying mass/mass ratios of conjugation, and at different concentrations. Controls included empirical admixtures of the polymer/AMP as well as just the polymer or AMP.
Principle: Antimicrobial test materials added to wells at various concentrations, wells seeded with microbe. Microbial growth increase the optical density (OD)—assay monitors ability of microbe to grow in presence of test material. […] The microbe used was E. Coli. The results are shown in FIG. 13 with the values presented as a percentage of control (blank). […] The OD is ˜≤0.0 at all concentrations (0.01-0.5 mg/ml). Overall statistical significance is seen with 0.25 mg/ml and 5 mg/ml.

The next data set relates to DRG cells. The experiment in a line: Microelectrode Array (MEA) electrical activity of capsaicin-stimulated DRG cells. Type of data set: cell-based. Conditions: dose range 10-1000 μg/ml; FIG. 3B.
The next data set has as its system cortical neurons. The experiment in a line: Patch clamp of cortical neurons (sodium current). Type of data set: cell-based. Conditions: 1 μg/ml; FIG. 10C.
The subject of the next data set is S. epidermis. The experiment in a line: Kirby-Bauer disk diffusion susceptibility test. Type of data set: cell-based. Conditions: BP12P03 1-10 mg/ml; PLA 0.5 mg/ml. Here is the method:
as §2
(§3) Principle: Disks were saturated with antimicrobial test material and place on agar seeded with microbe. test material diffuses out and after incubation diameter of the clear zone is proportional to potency against the microbe. BP12P03 at 1 mg/ml −10 mg/ml; PLA (1.9 kDA) at 0.5 mg/ml were tested. Microbes used were S. aureus, S. epidermis and E. coli.

The test system of data set [5] is E. coli. The experiment in a line: Kirby-Bauer disk diffusion susceptibility test. Type of data set: cell-based. The note with it: BP12P03 1-10 mg/ml; PLA 0.5 mg/ml. The protocol: as §2, §3
In a further data set the test system is S. aureus. The experiment in a line: Kirby-Bauer disk diffusion susceptibility test. Type of data set: cell-based. The note with it: BP12P03 1-10 mg/ml; PLA 0.5 mg/ml. Here is the method: as §2, §3
In data set [6] the test system is DRG: dorsal root ganglion; hChon: human normal chondrocytes; OA: human OA chondrocytes. Type of data set: cell-based. Conditions: 24-72 hours; 2.5 mg/ml of HA or equivalent by gram:gram ratio; three cell types. Here is the method:
as §1

Bounds are passed on as bounds.

On to `CCN(CC)CC(=O)Nc1c(C)cccc1C` [Lidocaine], for which the “Reduction of sodium current reported in the literature” value in data set [1] was 38%.

On to `NC1=N[C@H](O)[C@H]2[C@H]3O[C@]4(O)O[C@@H]([C@@H](O)[C@@]2(N1)[C@@H]4O)[C@]3(O)CO` [TTX, tetrodotoxin], for which, in data set [2], the “Percentage reduction of sodium current (control)” value is “approximately 99%”.

Take Poly-L-Arginine [PLA 1.9 kDa]: the “Capsaicin (TRPV1 pathway) response” value in data set [3] (cortical neurons, n=3) is reported as “blocks the capsaicin (TRPV1 pathway response)”. Further, the Glutamate response result in data set [3] (glutamic acid after capsaicin) was “glutamate response is unaffected”. The “Viability (Live/Dead)” value in the data set with DRGs was “best viability profile”. For the same compound, the figures for the “E. coli growth (optical density as percentage of control)” value with E. coli [4] and in the data set with E. coli [4] (listed as PLA) were “potent giving quantifiable antimicrobial effects at all concentrations tested” and “very potent”, respectively. In addition, the “Optical density (OD)” value with E. coli [4] (all concentrations (0.01-0.5 mg/ml)) is at most 0.0. Besides, the “Concentration at which most suppression of spike count is seen” value in the data set on DRG cells was determined as 10 µg/mL. For the same compound, in the data set on cortical neurons, the “Block of sodium current” value is on record as “time dependent effect—getting stronger with time”. For the same compound, the “Activity in disk diffusion” value in the data set on S. epidermis, in the data set on E. coli [5] and in the data set on S. aureus was “activity against all tested species” each time.

For “Poly-L-arginine hydrochloride [Hydrobloc C01]”, the “Viability (Live/Dead)” value in the data set on DRGs is listed as “negatively affect viability”. Also, the “Metabolic activity (Alamar Blue)” value in data set [6] is “negatively affect metabolic activity”.
